Where “and” joins values, the source holds several entries; their conditions need not be identical. Equal entries are not always repeated.
How the values were obtained:
[1] = tested on: mice after myocardial infarction; assay: Myocardial infarction model, permanent LAD ligation (echocardiography, histology, immunostaining, PET, EM); type: in vivo, ICR (CD1) mice
Experimental: Model of heart failure in adult mice. To induce myocardial infarction (MI) in 8- to 10-week-old mice, the left anterior descending (LAD) artery was permanently ligated. Briefly, mice were anesthetized with 2% isoflurane and then intubated. The heart was exposed by performing a thoracotomy through the fourth or fifth intercostal space and an 8-0 nylon suture was tied around the LAD artery. 10 uls of Adenoviral SRC-3 (Ad-SRC-3) or adenoviral GFP (Ad-GFP) at a titre of 9×10^9 pfu/ml was injected into the anterior free wall near left ventricular descending coronary artery. To assess cell cycle entry, the analog 5-ethynyl-2′-deoxyuridine (EdU; 0.2 g/L, Santa Cruz, SC-284628A) was added to the drinking water for the 9 day duration of the experiment. Cell proliferation was measured using Click-iT EdU kit (Invitrogen, C10339). The initial dose of MCB-613 was administered intraperitoneally at 20 mg/kg 2 hours after surgery. Subsequent injections of the same dose were given for 6 additional days, and then repeated doses were given for 3 days at week 9 and week 16. Mice were harvested at indicated time points for analyses.
Echocardiography. Cardiac function was determined by echocardiography (VisualSonics, Vevo 2100, 40 Mhz-550S probe). After alignment in the transverse B-mode with the papillary muscles, cardiac function was measured on M-mode images.
(§1) Histological analysis. Whole hearts were fixed with 10% formalin, embedded in paraffin, and sectioned at 7 μm intervals. Each slide had 3 or 10 sections, which started at the apex and ended at the suture ligation site (approximately 30-50 slides). Sections at the papillary level (slides 20-30) were stained with Picrosirius red to identify areas of fibrosis. Infarct size was determined using a length-based approach.
Immunostaining analysis. Immunohistochemistry and immunofluorescent staining experiments were performed on FFPE (formalin-fixed and paraffin-embedded sections). TUNEL staining to detect apoptotic cells was done using the DeadEnd™ Fluorometric TUNEL System manufacturer's protocol (Promega, GS3250).
Model of heart failure in adult mice. To induce MI in eight- to ten-week-old mice, the left anterior descending (LAD) artery was permanently ligated. Briefly, mice were anesthetized with 2% isoflurane and then intubated. The heart was exposed by performing a thoracotomy through the fourth or fifth intercostal space and an 8-0 nylon suture was tied around the LAD. The initial dose of MCB-613 was administered intraperitoneally at 20 mg/kg, two hours after surgery. Subsequent injection at the same time of the day and same dose were given for six additional days, and then repeated doses were given for three days at week nine and week 16. Mice were harvested at the indicated time points for analyses.
Echocardiography. Cardiac function was determined by echocardiography (VisualSonics, Vevo 2100, 40 Mhz-550S probe). After alignment in the transverse B-mode with the papillary muscles, cardiac function was measured on M-mode images. Animal numbers for cardiac function in FIG. 11A are Day 0 control (17); MCB-613 (15), Day 1 control (10); MCB-613 (12), Day 14 […], Day 56 control (12); MCB-613 (15), Day 70 control (8); MCB-613 (10), Day 80 control (8); MCB-613 (11), Day 133 control (3); and MCB-613 (3).
as §1, with “three (3) to ten (10)” for “3 or 10”, “approach. TUNEL staining to detect apoptotic cells was performed using the DeadEnd™ Fluorometric TUNEL System (Promega, GS3250).” for “approach.”
Electron Microscopy. […]

[2] = Pharmacokinetics in CD-1 mice (plasma, HPLC-MS/MS)
Experimental: Each of the three compounds was dissolved in DMSO (20 mg/mL), mixed with 30% hydroxypropyl-β-cyclodextrin at a 1:9 ratio, and administered to the CD-1 mice intraperitoneally (ip) or orally (po) through a gavage. After compound administration, blood samples (3 mice per compound) were collected at nine time points, i.e., at 5 minutes, 0.25 hours, 0.5 hours, 1 hour, 2 hours, 4 hours, 8 hours, 12 hours, and 24 hours, through the tail vein. Plasma was isolated from these blood samples and the compound plasma concentrations were determined by HPLC-MS/MS. Pharmacokinetic parameters were calculated using the program PKSolver, an add-in program for use in analyzing pharmacokinetic and pharmacodynamics data analysis, as described in Zhang et al., Computer Methods and Programs in Biomedicine, 99: 306-314 (2010).

[3] = tested on: GAL4-DBD full length SRC-1, -2 or -3 fusion; assay: GAL4 luciferase reporter assay in cardiac fibroblasts; type: cell-based, mice; details: 6 μM, SRC-3 vs SRC-1 and SRC-2
Experimental: Reporter assay. Cardiac fibroblasts were plated in six well plates and transfected with a GAL4 responsive luciferase reporter (pG5-luc) and expression vectors for a GAL4 DNA binding domain (GAL4-DBD) full length SRC-1, -2 or -3 fusion construct (pBIND-SRC-1, pBIND-SRC-2 or pBIND-SRC-3) or pBIND control using Lipofectamine 3000 (Invitrogen; Carlsbad, CA). Twenty-four (24) hours post transfection, cells were treated with 6 μM MCB-613 or dimethyl sulfoxide (DMSO) and incubated overnight. Post treatment cells were lysed and total protein was isolated using the Promega luciferase assay system (Promega Life Sciences; Madison, WI). Protein concentration was measured using a Bradford assay (Bio-Rad Laboratories; Hercules, CA). Relative light units were measured and normalized to total protein concentration.

cardiac immune cells = assay: Flow cytometry cardiac immune phenotyping post-MI; type: in vivo, mice; details: 24 hours post-MI, vs control
Experimental: Flow Cytometry and Cardiac Immune Phenotyping. Hearts and spleens isolated from control and MCB-613 treated mice 24 hours post-MI or post-sham surgery were digested in digestion buffer: 500 μL of DNAse I (10 mg/ml), 500 μl Collagenase II (50 mg/ml) into 4 ml (enough for approx. 12 spleens @ 1x) RPMI 1640. Cells were placed on a GentleMacs dissociator and run on “IMPC_step2” twice and incubated at 25° C. for 15 minutes. The “IMPC_step2” program was repeated and the samples were incubated at 25° C. an additional 15 minutes followed by another round of the “IMPC_step2” program. Then, 400 μL of 4° C. Stopping Buffer (1x PBS, 0.1M EDTA) was added to each sample and centrifuged at ˜100 g for one second to collect liquid at the bottom of tube. Samples were filtered through mesh filter caps into 50 mL conical tubes. The tubes were then washed with 1 mL FACs buffer which was also then passed through the filter. Heart preps were more viscous and were washed with 20 mL cold filtered saline. Samples were centrifuged at 500 g for 6 minutes. Supernatant was discarded and the pellet suspended in 1 mL 4° C. FACS buffer. Following red blood cell (RBC) lysis and blocking, single cell suspensions were stained with an immune cell panel and quantified using an LSR II flow cytometer. Then, 500,000 live events were counted for spleen controls and the entire tube of heart cells was recorded and analyzed.

- AUC(0-inf) ([2]; intraperitoneal): 129.6 ng·h/mL
- AUC(0-t) ([2]; intraperitoneal): 122.2 ng·h/mL
- Cl ([2]; intraperitoneal): 6.4 (mg)/(ng/mL)/h
- Cmax ([2]; intraperitoneal): 49.2 ng/mL
- Terminal phase t1/2 ([2]; intraperitoneal): 390 min
- Tmax ([2]; intraperitoneal): 4.8 min
- t1/2 ([2]; intraperitoneal): 51.6 min
- AUC(0-inf) ([2]; oral (gavage)): 24.3 ng·h/mL
- AUC(0-t) ([2]; oral (gavage)): 15.7 ng·h/mL
- Cl ([2]; oral (gavage)): 34 (mg)/(ng/mL)/h
- Cmax ([2]; oral (gavage)): 5.6 ng/mL
- Terminal phase t1/2 ([2]; oral (gavage)): 966 min
- Tmax ([2]; oral (gavage)): 15 min
- t1/2 ([2]; oral (gavage)): 56.4 min
Structure (SMILES): CCC1C/C(=C\c2cccnc2)C(=O)/C(=C/c2cccnc2)C1 (stereo not drawn) [MCB-613]
- 18F-FDG uptake in infarct zone (cardiac PET) ([1]; 2 weeks post-MI): Improved ^18F-FDG uptake in the infarct zone
- infarct size vs saline control ([1]; 10 weeks post-MI, picrosirius red): decrease in infarct size
- heart weight (vs tibia length), cardiomegaly ([1]; 12 weeks post-MI): attenuated the MI-induced cardiomegaly compensatory response
- cardiomyocyte size and fibrosis in infarct border zone ([1]; 12 weeks post-MI, Picrosirius red): cardiomyocytes were smaller and associated with less fibrosis in the infarct border zone
- infarct size (Picrosirius red, % length) ([1]; 12 weeks post-MI, individual hearts, control 31% and 44%): 3% and 14% and 20% and 22%
- apoptosis (TUNEL) ([1]; 24 hours post-MI): prevents apoptosis
- average ejection fraction ([1]; 24 hours post-MI, 20 mg/kg ip two hours post-MI, control 30%): 43%
- LYZ1 granule expression in myocardium ([1]; 24 hours post-MI, vs control): LYZ1 granule expression was significantly increased
- myofibrillar and mitochondrial structure (electron micrographs) ([1]; 72 hours post-MI): prevent disorganization of myofibrillar structure and abnormal mitochondrial cristal architecture
- ejection fraction maintained ([1]; from 24 hours until 19 weeks post-MI, 20 mg/kg ip 2 h post-MI and six additional days): above 40%
- angiogenesis in infarct border zone (CD31 immunostain) ([1]; three days post-MI, treated two hours post-MI): Increased angiogenesis was observed in the infarct border zone
- SRC activation (luciferase, RLU) [3]: induced in response to MCB-613 to a greater extent than for SRC-1 and SRC-2
- composition of cardiac immune cells (FACS) (cardiac immune cells): significant decrease in B cells, a trend for decreased monocytes and no change in the fraction of granulocytes
